From the OPERA property sets (Mansouri et al. 2018) come the findings set out here.

In general, logP refers to the decadic logarithm of the partition coefficient of the neutral form, usually between octanol and water. On to `CCCc1cccc(-c2cnc(SCCc3c[nH]cn3)[nH]2)c1`, for which the logP is 3.7.

Consider `CCCc1ccc(-c2cnc(SCCc3c[nH]cn3)[nH]2)cc1`, for which the logP stood at 4.09. On to `O=[N+]([O-])c1cccc(-c2cnc(SCCc3c[nH]cn3)[nH]2)c1`, for which the logP was 2.43.

`c1ccc(-c2cnc(SCCc3c[nH]cn3)[nH]2)cc1` returned a logP of 2.62. As to `CCCCOc1ccc(-c2cnc(SCCc3c[nH]cn3)[nH]2)cc1`, the lipophilicity (logP) was 4.11. In turn, `O=S(=O)(Oc1ccc(-c2cnc(SCCc3c[nH]cn3)[nH]2)cc1)c1ccccc1` registered a logP of 3.72. Compound `Clc1ccc(-c2cnc(SCCc3c[nH]cn3)[nH]2)cc1` showed a log partition coefficient (logP) of 3.66.

For `O=[N+]([O-])c1ccc(-c2cnc(SCCc3c[nH]cn3)[nH]2)cc1`, the logP was found to be 2.75. `Brc1cccc(-c2cnc(SCCc3c[nH]cn3)[nH]2)c1`: the logP came out at 3.76.

As to `NC(=O)c1cccc(-c2cnc(SCCc3c[nH]cn3)[nH]2)c1`, the logP was 1.61.

`NC(=O)c1ccc(-c2cnc(SCCc3c[nH]cn3)[nH]2)cc1`: the logP came out at 1.4.
